The text below walks through data of ChEMBL document CHEMBL1201862, “PubChem BioAssay data set” (2004).

Common to all, as to experiment: NCI-60 cell line screen, 48 h
Assay [1] has as its system TK-10.
The subject of assay [2] is HOP-92.
The test system of assay [3] is EKVX.
Assay [4] deals with CAKI-1.
Assay [5] deals with RXF 631.
The test system of assay [6] is SK-MEL-2.
The test system of assay [7] is NCI-H460.
The subject of assay [8] is KM-20L2.
Assay [9] has as its system DMS-114.
The test system of assay [10] is NCI-H23.
The subject of assay [11] is RPMI-8226.
The subject of assay [12] is UACC-62.
Assay [13] has as its system DMS-273.
Assay [14] has as its system OVCAR-8.
In assay [15] the test system is XF498.
The subject of assay [16] is OVCAR-5.

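Cultured in 96-well plates, cells were exposed to test compound for 48 hours across five concentrations. GI50: concentration for 50% inhibition of growth.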 Activity calls are given as the source filed them. No stated cut-off is given here; in the data, active = GI50 up to about 1.1 µM and inactive = higher. Some results are limits rather than exact numbers.

On to `CCOCc1cc(=O)c2c(O)cc3c(c2o1)CCC(C)(C)O3`, for which the GI50 is > 100 µM (inactive) in assay [1]; 4.86 µM (inactive) in assay [2]; > 100 µM (inactive) in assay [3]; > 100 µM (inactive) in [4]; > 100 µM (inactive) in [5]; > 100 µM (inactive) in [6]. Further, the GI50 in assay [7], in assay [8], in assay [9], in assay [10], in assay [11] and in assay [12] was > 100 µM (inactive) each time. The GI50 in assay [13] and in [14] was > 100 µM (inactive) in each case.

With `O=[S@@]1Nc2ccc(Br)cc2S1`, the GI50 in [1] is 2.79 µM (inactive); in [2] it was > 100 µM (inactive); in assay [3], 41.6 µM (inactive); in assay [4] it was 1.15 µM (inactive); in assay [5], 3.3 µM (inactive); in [6] it was 4.67 µM (inactive). The GI50 in [15] is > 100 µM (inactive); in [8] it was 0.294 µM (active); in assay [10], 25.2 µM (inactive); in assay [11], > 100 µM (inactive); in assay [12], 1.07 µM (active); in [13] it was 1.73 µM (inactive).

As for `CN(C(=O)C12C3C4C1C1C2C3C41C(=O)C(C)(C)C)C(C)(C)C` (centres undefined), the GI50 in assay [1], in assay [3], in assay [4], in assay [16], in [5] and in [6] was > 100 µM (inactive) throughout. Also, the GI50 in [15], in assay [8], in assay [9], in [10], in [11] and in assay [12] was > 100 µM (inactive) in each case. Besides, the GI50 in [13] and in assay [14] was > 100 µM (inactive) each time.

For `O=S(O)CCCCSSCCCCS(=O)(=O)S`, the GI50 is 42.6 µM (inactive) in [1]; 19.4 µM (inactive) in assay [3]; > 100 µM (inactive) in [4]; > 100 µM (inactive) in assay [16]; 51.9 µM (inactive) in assay [5]; 35.7 µM (inactive) in [6]. The GI50 in [15] was 15.3 µM (inactive); in assay [7], 64.3 µM (inactive); in assay [8] it was > 100 µM (inactive); in assay [9], 39.4 µM (inactive); in assay [10], 53.6 µM (inactive); in assay [12] it was 18 µM (inactive). Further, the GI50 is 50.9 µM (inactive) in [13] and 37.8 µM (inactive) in assay [14].

In the case of `O=S(O)c1cc(Cl)cc(Cl)c1OCc1ccccc1`, the GI50 in [1], in [3], in [16], in assay [5], in assay [6] and in assay [15] was > 100 µM (inactive) in each case. The GI50 in assay [7], in assay [9], in assay [10] and in assay [12] was > 100 µM (inactive) each time.
